The values that follow come from patent publication US3985742A, “Process for preparing 3-hydroxymethyl cephalosporins” (priority 1975, dated 1976).

“Also recorded” adds a separate entry of the source. Where a name gives a salt, the structure may show the parent alone. Read-outs that look alike come from different tables or passages of the source.

The test system of one series is Escherichia coli 236. Description: bacterial inactivation. The note with it: 4 hours; assayed on B. subtilis (MB-964). The procedure: (§1) These cultures are: Escherichia coli 236, Proteus morganii 251, Proteus morganii 356 and Proteus mirabilis 241. […] In conducting the assay, individual mixtures of the organisms and one of the antibiotics were sampled after four hours incubation and assayed for residual antibiotic activity. The procedure is the same assay method as described above against Alcaligenes faecalis MB-9 and A. viscosus MB-12.

The next series has as its system Proteus mirabilis 241. Description: bacterial inactivation. The note with it: washed bacterial cells, 4 h. On the procedure: as §1
For the next series, the system named is Proteus morganii 251. Description: bacterial inactivation. The settings on record: washed bacterial cells, 4 h. On the procedure:
as §1

The next series relates to Proteus morganii 356. The series can be described thus: bacterial inactivation. The note with it: washed bacterial cells, 4 h. On the procedure:
as §1

Series [1] can be described thus: blood appearance and urinary excretion. The settings on record: for appearance in blood / excretion: in vivo. The class given is in vivo, mice.
The nature of series [2]: isoelectric point and pH stability. The format is physicochemical. The note with it: for stability: pH 1.5.
For series [3], the system named is gram-negative and gram-positive infections. The series can be described thus: in vivo protection, summary statements. The arrangement: species or system mice. The settings on record: for protection against infection, oral: given orally; for in vivo activity / protection spectrum: mouse. On the procedure: (§2) Methods: The method employed in this characterization is as follows: Female white Swiss mice, average weight 20-23 grams, were infected intraperitoneally with 3-20 times the number of organisms calculated to be lethal for 50% of the infected control animals (3-20 LD50 doses). At the time of infection and again 6 hours later, therapy was given by the designated route. Controls of the virulence of the culture and the toxicity of the antibiotic for uninfected mice were included in the tests. Seven days after infection the test was considered complete and the amount of the antibiotic (I) that would be required to protect 50% of the infected and treated animals was calculated by the method of Knudsen and Curtis; J. Amer. Stat. Assoc. Vol. 42: page 282 (1947).
The method employed in these studies is the same as described above with regard to the in vivo characterization of 810A.

The test system of series [4] is cephalosporinases and penicillinase. Description: resistance to enzymatic degradation / bacterial inactivation, summary statements.
The next series has as its system gram-negative bacteria. Description: in vitro growth inhibition, summary. The class given is cell-based.
A further series relates to gram-positive bacteria. The series can be described thus: in vitro growth inhibition, summary. The format is cell-based. The settings on record: S. aureus, Sarcina lutea, B. subtilis.
The next series concerns bacteria. Description: bactericidal action and development of resistance.
Series [5] deals with Alcaligenes faecalis MB-9. The series can be described thus: bacterial inactivation by washed bacterial cells. The note with it: 4 hour; assayed on B. subtilis (MB-964); start 4 mg/ml.
Series [6] concerns Alcaligenes viscosus MB-12. The series can be described thus: bacterial inactivation by washed bacterial cells. The settings on record: 4 hour; assayed on B. subtilis (MB-964); start 4 mg/ml.
Series [7] concerns Escherichia coli W-MB-60. Description: disc zone bioassay of derivatives. The format is cell-based. The note with it: WMB60, 100γ/ml, read-out: disc zone size. From the text: (§3) Bioassay: the disc zone sizes in the following table are expressed in mm. for 100γ/ml of antibiotic.
(§4) Bioassay: The disc zone sizes in the following table are expressed in mm. for equal concentrations of antibiotic.

Series [8] deals with Pseudomonas stutzeri MB-1231. Description: disc zone bioassay of derivatives. The class given is cell-based. The note with it: Stutzerimonas stutzeri, MB1231, 100γ/ml; read-out: disc zone size.
From the text: as §3
Bioassay: the disc zone sizes in the following table are expressed in mm. for equal concentrations of antibiotic.
as §4

For series [9], the system named is several strains of bacteria. Description: bioactivity, summary. The format is cell-based.
In the next series the test system is Vibrio percolans MB-1272. The series can be described thus: disc-plate bioassay using Vibrio percolans. The settings on record: Comamonas terrigena, MB1272, read-out: disc zone size, 5γ/ml.
Series [10] is described as follows: relative biopotency of blocked intermediate. The note with it: starting material: disodium salt of 842A.
The nature of series [11]: toxicity in uninfected mice. The note with it: mouse, in vivo. On the procedure: as §2
The subject of the next series is Pseudomonas aeruginosa. The series can be described thus: disc-plate agar diffusion, antibacterial spectrum. The class given is cell-based. The settings on record: 192 μg/ml, 25 °C, 7 mm = no zone, read-out: Inhibition Zone Diameter.
The next series deals with Serratia marcescens. Description: disc-plate agar diffusion, antibacterial spectrum. The class given is cell-based. The settings on record: 192 μg/ml, 25 °C, 7 mm = no zone, read-out: Inhibition Zone Diameter. On the technique in general: A growth-free zone around the sample is the usual read-out of agar diffusion tests.
The next series has as its system Staphylococcus aureus. The series can be described thus: disc-plate agar diffusion, antibacterial spectrum. The class given is cell-based. The settings on record: 192 μg/ml, 25 °C, 7 mm = no zone, read-out: Inhibition Zone Diameter.
A further series has as its system Sarcina lutea. The series can be described thus: disc-plate agar diffusion, antibacterial spectrum. The class given is cell-based. The note with it: Micrococcus luteus; 192 μg/ml; 25 °C; 7 mm = no zone; read-out: Inhibition Zone Diameter.
The test system of series [12] is Staphylococcus aureus (Streptomycin-Streptothricin-resistant). The series can be described thus: disc-plate agar diffusion, antibacterial spectrum. The format is cell-based. The settings on record: read-out: Inhibition Zone Diameter.
A further series deals with Streptococcus faecalis. The series can be described thus: disc-plate agar diffusion, antibacterial spectrum. The class given is cell-based. The settings on record: Enterococcus faecalis; 192 μg/ml; 37 °C; 7 mm = no zone; read-out: Inhibition Zone Diameter.
Another series concerns Alcaligenes faecalis. Description: disc-plate agar diffusion, antibacterial spectrum. The format is cell-based. The settings on record: 192 μg/ml, 37 °C, 7 mm = no zone, read-out: Inhibition Zone Diameter.
The subject of the next series is Brucella bronchiseptica. Description: microbe, parasite or virus in culture. The class given is cell-based. The settings on record: Bordetella bronchiseptica, read-out: Inhibition Zone Diameter.
In a further series the test system is Vibrio percolans. The series can be described thus: disc-plate agar diffusion, antibacterial spectrum. The format is cell-based. The settings on record: Comamonas terrigena; 192 μg/ml; 27 °C; 7 mm = no zone; read-out: Inhibition Zone Diameter.
The test system of series [13] is Escherichia coli, Streptomycin-resistant. The series can be described thus: cross-resistance, disc-plate agar diffusion. The format is cell-based. The settings on record: read-out: Inhibition Zone Diameter.
Series [14] relates to Escherichia coli, Pleocidin-resistant. Description: cross-resistance, disc-plate agar diffusion. The format is cell-based. The settings on record: read-out: Inhibition Zone Diameter.
Series [15] has as its system Escherichia coli, Chloramphenicol-resistant. Description: cross-resistance, disc-plate agar diffusion. The class given is cell-based. The note with it: read-out: Inhibition Zone Diameter.
Series [16] deals with Escherichia coli, Chlortetracycline-resistant. Description: microbe, parasite or virus in culture. The settings on record: read-out: Inhibition Zone Diameter. The format is cell-based.
For series [17], the system named is Escherichia coli, Neomycin-resistant. The series can be described thus: cross-resistance, disc-plate agar diffusion. The note with it: read-out: Inhibition Zone Diameter. The class given is cell-based.
In series [18] the test system is Escherichia coli, Viomycin-resistant. The series can be described thus: cross-resistance, disc-plate agar diffusion. The class given is cell-based. The note with it: read-out: Inhibition Zone Diameter.
Series [19] deals with Escherichia coli, Polymyxin-resistant. The series can be described thus: cross-resistance, disc-plate agar diffusion. The format is cell-based. The settings on record: read-out: Inhibition Zone Diameter.
Series [20] concerns Escherichia coli, Grisein-resistant. The series can be described thus: cross-resistance, disc-plate agar diffusion. The format is cell-based. The note with it: read-out: Inhibition Zone Diameter.
Series [21] concerns Escherichia coli W-MB-60. Description: special effects spectrum, disc-plate agar diffusion. The note with it: WMB60, 192 μg/ml, read-out: Inhibition Zone Diameter. The class given is cell-based.

In the case of `CO[C@@]1(NC(=O)CCC[C@@H](N)C(=O)O)C(=O)N2C(C(=O)O)=C(COC(N)=O)CS[C@@H]21` [Example 842A], the percent inactivation with Escherichia coli 236 amounted to 38%; with Proteus mirabilis 241, 5%; in the series on Proteus morganii 251 it was 80%; in the series with Proteus morganii 356, 69%. Further, the “appearance in blood / excretion” value is “rapidly excreted in the urine” in series [1] (mouse) and “appears rapidly in the blood” in series [1] (mouse, listed as Antibiotic 842A). In addition, the dose excreted at 4 h in series [1] (mouse, urine, sc, within four hours after administration, read-out: eliminated/recovered in the urine) is roughly 79%. Further, the “eliminated/recovered in the urine” value in series [1] (within four hours after administration, 240 min, listed as Antibiotic 842A, 240 min) is recorded as “approximately 80%”. Further, the apparent isoelectric point in series [2] (amphoteric compound) is roughly 3.5 pH. In addition, the values for the stability result in series [2] and in series [2] (listed as Antibiotic 842A) were “stable” and “relatively stable”, respectively. The “protection against infection, oral” value in [3] was “protects against infections due to Paracolobactrum arizonae 3270, Proteus vulgaris 1810, and Salmonella schottmuelleri 3010”. Also, the “in vivo activity / protection spectrum” value in series [3] (listed as Antibiotic 842A) was “protects against infection with three species of Proteus, two of Salmonella, one strain of Escherichia coli, two of Klebsiella and also against Paracolobactrum arizonae, Aerobacter aerogenes, Pasteurella multocida and Diplococcus pneumoniae 2400; also recorded: effectiveness against the following gram-negative bacteria: Escherichia coli, Proteus vulgaris, Proteus mirabilis, Proteus morganii, Salmonella schottmuelleri, Klebsiella pneumoniae AD, Klebsiella pneumoniae B, and Paracolobactrum arizonae”. In addition, in series [4] (listed as Antibiotic 842A), the “resistance to enzymatic degradation / inactivation” value is “greater resistance to cephalosporinases; also recorded: more resistant to enzymatic degradation than cephalosporin C; also recorded: more stable than the latter against certain microorganisms; also recorded: more resistant than cephalosporin C to inactivation by A. faecalis, A. viscosus, Escherichia coli 236, Proteus morganii 251, Proteus morganii 236 and Proteus mirabilis 241”. Moreover, the “activity against Salmonella” value with gram-negative bacteria was “exhibits activity against Salmonella schottmuelleri 3010, S. gallinarum and S. typhosa”. In addition, the growth inhibition entry is reported as “inhibits the growth of the following gram-negative bacteria” with gram-negative bacteria (in vitro, E. coli, P. vulgaris, A. faecalis, B. bronchiseptica, S. gallinarum, V. percolans, X. vesicatoria) and “inhibits the growth of the following gram-positive bacteria” with gram-positive bacteria. In the series on bacteria, the bactericidal action entry is listed as “bactericidal”. Further, in the series with bacteria, the development of resistance result is “resistance to it develops slowly”. In addition, the “Percent Inactivation After Incubation With Washed Bacterial Cells” value in series [5] came to 0%; in series [6], 54.4%.

Regarding `CO[C@@]1(NC(=O)CCC[C@@H](N)C(=O)O)C(=O)N2C(C(=O)O)=C(CN=[N+]=[N-])CS[C@@H]21` [7β-(D-5-amino-5-carboxyvaleramido)-3-(azidomethyl)-7-methoxy-3-cephem-4-carboxylic acid], the zone of inhibition at 100 µg/mL with Escherichia coli W-MB-60 [7] came to 21 mm; in series [8], 20 mm. The bioactivity result in series [9] was “possessed bioactivity against several strains of bacteria”. Besides, the zone of inhibition at 5 µg/mL with Vibrio percolans MB-1272 is 16 mm.

For `CO[C@@]1(NC(=O)CCC[C@@H](NC(=O)OC(C)(C)C)C(=O)O)C(=O)N2C(C(=O)O)=C(COC(N)=O)CS[C@@H]21` [7β-(D-5-N-tertiary-butoxycarbonylamino-5-carboxyvaleramido)-3-(carbamoyloxymethyl)-7-methoxy-3-cephem-4-carboxylic acid], the “biopotency relative to starting material” value in [10] is “one-tenth the biopotency of the starting material”.

Consider `COC(=Cc1ccc(OS(=O)(=O)O)cc1)C(=O)OCC1=C(C(=O)O)N2C(=O)[C@](NC(=O)CCC[C@@H](N)C(=O)O)(OC)[C@H]2SC1` [Ic, 7β-(D-5-amino-5-carboxyvaleramido)-3-(α-methoxy-p-sulfooxycinnamoyloxymethyl)-7-methoxy-3-cephem-4-carboxylic acid], for which the toxicity entry in series [11] is on record as “low order of toxicity in mice”. Moreover, in series [3], the “protection against infection, oral” value is given as “protects against infections due to Proteus vulgaris”; the “in vivo activity / protection spectrum” value is “when administered intraperitoneally it is effective against a variety of gram-negative and gram-positive infections”. The “resistance to enzymatic degradation / inactivation” value in series [4] (listed as 7β-(D-5-amino-5-carboxyvaleramido)-3-(α-methyoxy-p-sulfooxycinnamoyloxymethyl)-7) is on record as “greater resistance to cephalosporinases than cephalothin; also recorded: more resistant to enzymatic degradation than cephalosporin C”. Besides, the bactericidal action result with bacteria is “bactericidal”.

In the case of `CO[C@@]1(NC(=O)CCC[C@@H](N)C(=O)O)C(=O)N2C(C(=O)O)=C(COC(N)=O)CS[C@@H]21` [Sodium Salt], the zone of inhibition at 192 µg/mL with Pseudomonas aeruginosa stood at 7 mm; in the series with Serratia marcescens, 7 mm; in the series with Staphylococcus aureus, 7 mm; in the series with Sarcina lutea it was 9 mm; in series [12], 10 mm; with Streptococcus faecalis, 7 mm. The zone of inhibition at 192 µg/mL in the series on Alcaligenes faecalis is 7 mm; in the series on Brucella bronchiseptica, 26 mm; in the series with Vibrio percolans it was 38 mm; in [13] it was 16 mm; in series [14], 17 mm; in [15] it was 16 mm. Also, the zone of inhibition at 192 µg/mL in series [16] was found to be 23 mm; in [17], 17 mm; in [18], 30 mm; in series [19], 7 mm; in [20], 16 mm; in the series on Escherichia coli W-MB-60 [21] (0.1 M phosphate buffer pH 5, 25 °C), 15 mm. Moreover, in the series on Escherichia coli W-MB-60 [21] (0.1 M phosphate buffer pH 7, 25 °C), the zone of inhibition at 192 µg/mL came out at 25 mm.
